Reference: article PMC4456024 (Chemical biology & drug design, 2014)

Target: cardiac troponin C (cNTnC) (Homo sapiens, UniProt P63316, C35S/C84S)
Assay: 2D 1H, […]-HSQC NMR titration, […] fit
Type: binding

`Cc1ccc(C)c(N2CCN(c3ccncc3N)CC2)c1` [compound 6, 4-(4-(2,5-dimethylphenyl)-1-piperazinyl)-3-pyridinamine] gave a Kd of 721 ± 16 µM.
